Assay results as given in patent publication US20220033426A1, “Transition Metal Macrocyclics as MRI Contrast Agents for Molecular Imaging” (YALE UNIVERSITY, priority 2020, published 2022).

What was measured:
[1] = Temperature sensitivity of 1H NMR proton chemical shift (BIRDS), variable temperature; format: physicochemical; conditions: At 11.7 T and a temperature range of 25-42° C.
Text: (§1) For paramagnetic complexes, the total chemical shift of the nuclear spin (δO) is dependent on the cumulative effects of diamagnetic (δD) and paramagnetic (δP) terms, where δP is typically much larger than δD, which has also a very weak temperature dependence. Thus, the effect of temperature on the chemical shift is dominated by δP. Similarly, protonation of an exchangeable group from the complex can modify its geometry and alter its chemical shifts, thus providing pH sensing capability. Variation of the total shift term, ΔδO, when temperature changes by ΔT and pH changes by ΔpH, can be modeled as
(§2) where CT=(ΔδO/ΔT)pH,[X] is the temperature sensitivity, CpH=(ΔδO/Δ pH)T,[X] is the pH sensitivity, and CX represents the sensitivity to cation X concentration (see Coman, D. et al., “Brain temperature by Biosensor Imaging of Redundant Deviation in Shifts (BIRDS): comparison between TmDOTP5^− and TmDOTMA^−,” NMR in Biomedicine, 2010, 23(3):277-285 for details). pH or temperature sensing with BIRDS depends on CT and CpH in relation to ΔδO (>>10^1 ppm) and is inherently independent of agent concentration and static magnetic field (BO) (Coman, D. et al., “Brain temperature and pH measured by 1H chemical shift imaging of a thulium agent,” NMR in Biomedicine, 2009, 22(2):229-239).
(§3) Since the ^1H NMR chemical shifts of the —NH peaks in the [XDOTA-4AmC]^2− and [XDOTA-4AmP]^6− complexes are temperature and pH-dependent (FIG. 6 and FIG. 7), they can be used for measurements of temperature and pH using BIRDS (Table 1). […] In the [XDOTMA]^2− set of complexes, it was observed that the —CH3 proton resonance has a higher intensity compared to other nonexchangeable proton peaks, like H2 or H3 (FIG. 2). The 3D surface plots in FIGS. 10A-C represent the temperature and pH dependencies of the —CH3 proton resonance of the [XDOTMA]^2− complex.

[2] = pH sensitivity of 1H NMR proton chemical shift (BIRDS), variable pH; format: physicochemical; conditions: At 11.7 T and a pH range of 6.5-8.0
Text: as §1, §2, §3

Row | Temperature Sensitivity, —NH proton resonance [1] [ppm/° C.] | pH Sensitivity, —NH proton resonance [2] [ppm/pH unit] | Compound
1 | 0.16 ± 0.01 | 0.04 ± 0.02 | O=C([O-])CNC(=O)CN1CCN(CC(=O)NCC(=O)[O-])CCN(CC(=O)NCC(=O)[O-])CCN(CC(=O)NCC(=O)[O-])CC1.[Fe+2] [[Fe(ii)DOTA-4AmC]^2−]
2 | 0.14 ± 0.02 | 1.07 ± 0.12 | O=C([O-])CNC(=O)CN1CCN(CC(=O)NCC(=O)[O-])CCN(CC(=O)NCC(=O)[O-])CCN(CC(=O)NCC(=O)[O-])CC1.[Ni+2] [[Ni(ii)DOTA-4AmC]^2−]

Row | Compound | Temperature Sensitivity, —NH proton resonance [1] [ppm/° C.] | pH Sensitivity, —NH proton resonance [2] [ppm/pH unit]
3 | O=C(CN1CCN(CC(=O)NCP(=O)([O-])[O-])CCN(CC(=O)NCP(=O)([O-])[O-])CCN(CC(=O)NCP(=O)([O-])[O-])CC1)NCP(=O)([O-])[O-].[Co+2] [[Co(ii)DOTA-4AmP]^6−] | 0.14 ± 0.01 | 0.37 ± 0.08
